For four compounds, inhibition results are on record in PubChem BioAssay AID1500 (NMMLSC, 2009).

The experiment deals with S. aureus cells, FITC-AIP binding, flow cytometry. The experiment is described as follows: inhibitors of FITC-AIP binding to S. aureus, late-stage follow-up, mechanism study for S. aureus quorum sensing inhibitors, strains RN6390, NM300, flow cytometry (AID 1500). Particulars: stronger effect = higher value. (In general: In flow cytometry, cells or beads pass a laser one at a time.)

Activity calls are given as the source filed them.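 The calls were made as follows: active = compounds cutting labeled signal peptide binding to staph cells by half or more; inactive = the rest.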

On to `CCc1oc2ccccc2c1C(=O)c1cc(Br)c(O)c(Br)c1`, for which the inhibition (usually the drop in the measured response relative to a control, in per cent) runs as follows: (at 6 µM) 65%; (strain RN6390, at 6 µM) 69%.

For the compound `CC1CCCN(C(C(=O)Nc2ccc3c(c2)OCCO3)c2ccccc2)C1` (stereo unspecified), under “at 12 µM”, the inhibition is 26% (inactive).

Consider `Cc1c(Cl)cccc1Nc1ccccc1C(=O)O`, for which the inhibition is, setting by setting: (at 30 µM) 67%; (strain RN6390, at 30 µM) 60%.

Consider `CC1CCCN(C(C(=O)Nc2ccc3c(c2)OCO3)c2ccccc2)C1` (stereo unspecified), for which the inhibition (at 12 µM) was 20% (inactive).
